# Reference: patent publication US20100316573A1, “Organic Compounds” (priority 2006, published 2010)
# Tested on: TNFα mRNA in SKOV-3 cells
# Experiment: TNFα mRNA induction in SKOV-3 cells (FIG. 2), fold increase relative to untreated cells
# Protocol: Each of the tumor cell lines indicated was treated for 18 hrs with 1 uM of the Compound II. mRNA was harvested using Qiagen's TurboCapture mRNA isolation kit. cDNA was synthesized using BioRad iScript cDNA synthesis kit. Primers specific for the cDNA encoding TNFalpha were then used to PCR amplify TNF cDNA from each sample using Applied. Biosystems TaqMan Universal PCR Master Mix. Data is normalized to B-Actin mRNA and expressed as relative levels of TNF mRNA.
# The graph depicting TNF induction by compound II includes nine bars correlating to the fold increase of TNF relative to untreated cells.
structure (smiles),measurement,setting,value
CC[C@@H](c1cncc(C(=O)c2ccc(F)cc2)c1)N(CC)C(=O)[C@@H](NC(=O)[C@H](C)NC)C1CCCCC1 [Compound III],induction of TNFα mRNA (in words),,induce TNFα mRNA in SKOV-3 cells in a dose dependent manner
same,fold increase of TNF relative to untreated cells,100 nM compound + PI (MG132),15-20 fold increase
same,fold increase of TNF relative to untreated cells,100 nM compound + ZVAD,85-95 fold increase
same,fold increase of TNF relative to untreated cells,100 nM compound alone,85-95 fold increase
same,fold increase of TNF relative to untreated cells,1000 nM compound + PI (MG132),30-40 fold increase
same,fold increase of TNF relative to untreated cells,1000 nM compound + ZVAD,75-80 fold increase
same,fold increase of TNF relative to untreated cells,1000 nM compound + sTNFR (soluble TNFα receptor),0-1 fold increase
same,fold increase of TNF relative to untreated cells,1000 nM compound alone,105-115 fold increase
same,fold increase of TNF relative to untreated cells,100 nm compound + sTNFR (soluble TNFα receptor),0-3 fold increase
